Source: ChEMBL document CHEMBL1134256, “Anticancer activity of synthetic analogues of the phorboxazoles” (Bioorg Med Chem Lett, 2001)
pIC50: −log10 of the molar value.

Legend:
[1] = test system: U373 MG; assay: Effect on proliferation of human brain tumor (glioblastoma) cell line U373 by MTT assay method; format: functional, cell-based, U-373MG ATCC
[2] = test system: NALM-6; assay: Effect on proliferation of human B-lineage acute lymphoblastic leukemia cell line NALM-6 by MTT assay method; format: functional, cell-based
[3] = test system: BT-20; assay: Effect on proliferation of human breast cancer cell line BT-20 by MTT assay method; format: functional, cell-based
[4] = test system: Saccharomyces pastorianus; assay: In vitro growth inhibitory concentration for antifungal activity against Saccharomyces carlsbergensis; format: functional
[5] = test system: Candida albicans; assay: In vitro growth inhibitory concentration for antifungal activity against Candida albicans; format: functional
[6] = test system: U373 MG; assay: In vitro anticlonogenic effect on human brain tumor (glioblastoma) cell line U373 at 100 nM concentration; format: functional, U-373MG ATCC
[7] = test system: BT-20; assay: In vitro anticlonogenic effect on human breast cancer cell line BT-20 at 10 nM concentration,; format: functional
[8] = test system: NALM-6; assay: In vitro anticlonogenic effect on human B-lineage acute lymphoblastic leukemia cell line NALM-6 at 10 nM concentration; format: functional
[9] = test system: U373 MG; assay: In vitro anticlonogenic effect on human brain tumor (glioblastoma) cell line U373 at 10 nM concentration; format: functional, U-373MG ATCC
[10] = test system: BT-20; assay: In vitro anticlonogenic effect on human breast cancer cell line BT-20 at 1 nM concentration; format: functional
[11] = test system: NALM-6; assay: In vitro anticlonogenic effect on human B-lineage acute lymphoblastic leukemia cell line NALM-6 at 100 nM concentration; format: functional
[12] = test system: NALM-6; assay: In vitro anticlonogenic effect on human B-lineage acute lymphoblastic leukemia cell line NALM-6 at 1 nM concentration; format: functional
[13] = test system: BT-20; assay: In vitro anticlonogenic effect on human breast cancer cell line BT-20 at 10 nM concentration; format: functional
[14] = test system: BT-20; assay: In vitro anticlonogenic effect on human breast cancer cell line BT-20 at 100 nM concentration; format: functional
[15] = test system: Saccharomyces pastorianus; assay: In vitro growth inhibitory concentration against Saccharomyces carlsbergensis; format: functional
[16] = test system: U373 MG; assay: In vitro anticlonogenic effect on human brain tumor (glioblastoma) cell line U373 10 nM concentration e; format: functional, U-373MG ATCC
[17] = test system: BT-20; assay: In vitro anticlonogenic effect on human breast cancer cell line BT-20 100 nM concentration; format: functional
[18] = test system: U373 MG; assay: In vitro anticlonogenic effect on human brain tumor (glioblastoma) cell line U373 100 nM concentration; format: functional, U-373MG ATCC
[19] = test system: Candida albicans; assay: In vitro growth inhibitory concentration against Candida albicans; format: functional
[20] = test system: BT-20; assay: In vitro anticlonogenic effect on human breast cancer cell line BT-20 10 nM concentration; format: functional
[21] = test system: BT-20; assay: In vitro anticlonogenic effect on human breast cancer cell line BT-20 1 nM concentration; format: functional

Question: What does the source list for `COC(=O)/C=C/C[C@H]1O[C@@H](/C(C)=C/c2coc(C[C@]3(O)C[C@H](OC)C[C@H]([C@H](O)/C=C(C)/C=C/[C@@H](C/C=C/Br)OC)O3)n2)[C@H](C)[C@@H](OC(C)=O)[C@H]1C`?
Answer: pIC50 [1]: < 5.70; pIC50 [2]: < 5.70; pIC50 [3]: < 5.70; GI50 [4]: 1.6 nM; GI50 [5]: 1.6 nM

Question: With `COC(=O)C[C@]1(O)C[C@H](OC)C[C@H]([C@H](O)/C=C(C)/C=C/[C@@H](C/C=C/Br)OC)O1` as the compound, how does the pIC50 [1] read?
Answer: < 5.70

Question: What about the pIC50 [2] of the same compound?
Answer: < 5.70

Question: And the pIC50 [3]?
Answer: < 5.70

Question: What about the GI50 [4] of the same compound?
Answer: 1.6 nM

Question: What about the GI50 [5] of the same compound?
Answer: 1.6 nM

Question: With `C=C1C[C@@H]2C[C@@H]3C[C@@H](O)C[C@@H](O3)c3coc(n3)/C=C/C[C@H]3O[C@@H](/C(C)=C/[C@H](CO)NC(=O)C[C@]4(O)C[C@H](OC)C[C@H]([C@H](O)/C=C(C)/C=C/[C@@H](C/C=C/Br)OC)O4)[C@H](C)[C@@H](OC(=O)/C=C\C[C@@H](C1)O2)[C@H]3C` as the compound, how does the pIC50 [1] read?
Answer: < 5.70

Question: What about the pIC50 [2] of the same compound?
Answer: < 5.70

Question: What about the pIC50 [3] of the same compound?
Answer: < 5.70

Question: And the GI50 [4]?
Answer: 1.6 nM

Question: And the GI50 [5]?
Answer: 1.6 nM

Question: Which results are given for `C=C1C[C@@H]2C[C@@H]3C[C@@H](O)C[C@@H](O3)c3coc(n3)/C=C/C[C@H]3O[C@@H](/C(C)=C/c4coc(C[C@]5(O)C[C@H](OC)C[C@H](CO)O5)n4)[C@H](C)[C@@H](OC(=O)/C=C\C[C@@H](C1)O2)[C@H]3C`?
Answer: pIC50 [1]: < 5.70; pIC50 [2]: < 5.70; pIC50 [3]: < 5.70; GI50 [4]: 1.6 nM; GI50 [5]: 1.6 nM

Question: With `C=C1C[C@@H]2C[C@@H]3C[C@@H](O)C[C@@H](O3)c3coc(n3)/C=C/C[C@H]3O[C@@H](/C(C)=C/c4coc(C[C@]5(O)C[C@H](OC)C[C@H]([C@H](O)/C=C(C)/C=C/[C@@H](C/C=C/Br)OC)O5)n4)[C@H](C)[C@@H](OC(=O)/C=C\C[C@@H](C1)O2)[C@H]3C` as the compound, how does the Mean no. colonies [6] read?
Answer: 0 10e4*cells

Question: What about the inhibition at 0.1 µM [6] of the same compound?
Answer: > 99.9%

Question: And the inhibition at 0.01 µM [7]?
Answer: > 99.9%

Question: And the Mean no. colonies [8]?
Answer: 0 10e4*cells

Question: And the inhibition at 0.01 µM [8]?
Answer: > 99.9%

Question: What about the Mean no. colonies [9] of the same compound?
Answer: 378 10e4*cells

Question: What about the pIC50 [1] of the same compound?
Answer: 8.17

Question: What about the pIC50 [2] of the same compound?
Answer: 8.77

Question: What about the Mean no. colonies [10] of the same compound?
Answer: 1070 10e4*cells

Question: What about the Mean no. colonies [11] of the same compound?
Answer: 0 10e4*cells

Question: And the inhibition at 0.1 µM [11]?
Answer: > 99.9%

Question: What about the pIC50 [3] of the same compound?
Answer: 8.47

Question: And the Mean no. colonies [12]?
Answer: 270 10e4*cells

Question: What about the GI50 [4] of the same compound?
Answer: 1.6 nM

Question: What about the Mean no. colonies [13] of the same compound?
Answer: 0 10e4*cells

Question: And the Mean no. colonies [14]?
Answer: 0 10e4*cells

Question: And the inhibition at 0.1 µM [14]?
Answer: > 99.9%

Question: What about the GI50 [5] of the same compound?
Answer: 1.6 nM

Question: What does the source list for `C=C1C[C@@H]2C[C@@H]3C[C@@H](O)C[C@@H](O3)c3coc(n3)/C=C/C[C@H]3O[C@@H](/C(C)=C/c4coc(C[C@]5(OC)C[C@H](OC)C[C@H]([C@H](O)/C=C(C)/C=C/[C@@H](C/C=C/Br)OC)O5)n4)[C@H](C)[C@@H](OC(=O)/C=C\C[C@@H](C1)O2)[C@H]3C`?
Answer: Mean no. colonies [6]: 0 10e4*cells; Mean no. colonies [8]: 422 10e4*cells; Mean no. colonies [9]: 578 10e4*cells; pIC50 [1]: 7.53; pIC50 [2]: 8.28; Mean no. colonies [10]: 1824 10e4*cells; Mean no. colonies [11]: 0 10e4*cells; pIC50 [3]: 7.95; Mean no. colonies [12]: 1760 10e4*cells; GI50 [4]: 1.6 nM; Mean no. colonies [13]: 1430 10e4*cells; Mean no. colonies [14]: 0 10e4*cells; GI50 [5]: 1.6 nM

Question: How did the Mean no. colonies [8] turn out when `C#CC[C@H](/C=C/C(C)=C/[C@@H](O)[C@H]1C[C@@H](OC)C[C@@](O)(Cc2nc(/C=C(\C)[C@@H]3O[C@@H]4C/C=C/c5nc(co5)[C@H]5C[C@H](O)C[C@@H](C[C@H]6CC(=C)C[C@H](C/C=C\C(=O)O[C@@H]([C@H]4C)[C@H]3C)O6)O5)co2)O1)OC` was run?
Answer: 293 10e4*cells

Question: And the pIC50 [1]?
Answer: 7.56

Question: And the GI50 [15]?
Answer: 1.6 nM

Question: And the pIC50 [2]?
Answer: 8.32

Question: And the Mean no. colonies [16]?
Answer: 586 10e4*cells

Question: What about the Mean no. colonies [17] of the same compound?
Answer: 0 10e4*cells

Question: And the Mean no. colonies [18]?
Answer: 144 10e4*cells

Question: What about the Mean no. colonies [11] of the same compound?
Answer: 0 10e4*cells

Question: And the pIC50 [3]?
Answer: 7.90

Question: What about the Mean no. colonies [12] of the same compound?
Answer: 2116 10e4*cells

Question: What about the GI50 [19] of the same compound?
Answer: 1.6 nM

Question: And the Mean no. colonies [20]?
Answer: 1062 10e4*cells

Question: And the Mean no. colonies [21]?
Answer: 1540 10e4*cells
